From patent US20170253607A1, “LONG-ACTING HIV PROTEASE INHIBITOR” (Shionogi & Co., Ltd., priority 2014, published 2017)

Legend:
[1] = Protein binding test (equilibrium dialysis, unbound ratio fu in serum); type: in vitro ADME; conditions: rat serum, equilibrium dialysis 24 hours, 37° C., 2 μg/mL
Outline: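 Compound at 2 μg/mL in serum was dialysed against PBS for 24 hours at 37° C. Both sides were quantified by LC/MS/MS, and fu was taken as the PBS concentration divided by the serum concentration.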

[2] = Evaluation of total body clearance (CLtot), intravenous administration; type: in vivo, Sprague-Dawley (SD); conditions: rat (SD), intravenous administration 0.5-10 mg/kg; CLtot = dose/AUC
Outline: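 Compounds given as a single tail-vein injection at 0.5-10 mg/kg (n=2-3), dose varying by compound. Plasma sampled at scheduled times and measured by LC/MS/MS; CLtot derived as dose divided by AUC from pharmacokinetic analysis.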

HIV-1 PR = HIV-1 PR (Human immunodeficiency virus type 1 group M subtype B, UniProt P04585); experiment: HIV-protease inhibitory activity assay (FRET peptide substrate); type: biochemical; conditions: Test Example 1
Outline: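 Compounds were preincubated with HIV-1 PR (0.83 ng) at room temperature in pH 4.8 NaAc buffer (0.5 M NaCl, EDTA, DTT, Tween 20), then HiLyte Fluor 488/QXL 520 FRET peptide (2 μmol/L final) was added for 60 min. Fluorescence was read at 485/535 nm, and IC50 was fitted by four-parameter logistic regression.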

SMILES | rat_fu [1] | rat_CLt [2] | IC50 (HIV-1 PR)
COc1ccc(S(=O)(=O)N(CC(C)C)C[C@@H](O)[C@H](Cc2ccc(NCc3ccccc3C(=O)Nc3sc4c(c3C(=O)O)CC(C)(C)CC4)cc2)NC(=O)O[C@H]2CO[C@@]3(C)OCC[C@@H]23)cc1 [Compound I-396] | <0.1% | 0.00343 L/h/kg | 2.76 nM
COc1ccc(S(=O)(=O)N(CC(C)C)CC(O)C(Cc2ccc(N(C)C3Cc4cccc(-c5sc6c(c5C(=O)O)CC(C)(C)CC6)c4C3)cc2)NC(=O)OC2COC3(C)OCCC23)cc1 (stereo not drawn) [Compound I-405] | <0.1% | 0.196 L/h/kg | 2.42 nM
COc1ccc(S(=O)(=O)N(CC(C)C)CC(O)C(Cc2ccc(N3CC(C)C(Oc4ccccc4-c4sc5c(c4C(=O)O)CC(C)(C)CC5)C3)cc2)NC(=O)OC2COC3(C)OCCC23)cc1 (stereo not drawn) [Compound I-406] | <0.1% | 0.277 L/h/kg | 1.89 nM
COc1ccc(S(=O)(=O)N(CC(C)C)CC(O)C(Cc2ccc(NCc3ncccc3-c3ccc(-c4sc5c(c4C(=O)O)CC(C)(C)CC5)cc3)cc2)NC(=O)OC2COC3(C)OCCC23)cc1 (stereo not drawn) [Compound I-415] | <0.1% | 0.0396 L/h/kg | 2.55 nM
COc1ccc(S(=O)(=O)N(CC(C)C)CC(O)C(Cc2ccc(NCc3ccccc3-c3sc4c(c3C(=O)O)CC(C)(C)CC4(C)C)cc2)NC(=O)OC2COC3(C)OCCC23)cc1 (stereo not drawn) [Compound I-418] | <0.1% | 0.0894 L/h/kg | 2.21 nM
COc1ccc(S(=O)(=O)N(CC(C)C)CC(O)C(Cc2ccccc2)NC(=O)OC2COC3(COC(=O)NCc4sc5c(c4C(=O)O)CC(C)(C)CC5)OCCC23)cc1 (stereo not drawn) [Compound I-780] | <0.1% | 0.134 L/h/kg | 1.64 nM
CC(C)CN(CC(O)C(Cc1ccccc1)NC(=O)OC1COC2(C)OCCC12)S(=O)(=O)c1ccc2nc(NCc3ccc(-c4sc5c(c4C(=O)O)CC(C)(C)CC5)cc3)sc2c1 (stereo not drawn) [Compound I-798] | <0.1% | 0.272 L/h/kg | 0.99 nM
COc1ccc(S(=O)(=O)N(CC(C)C)CC(O)C(Cc2ccc(OCc3ccccc3-n3nc4c(c3C(=O)O)CC(C)(C)CC4)cc2)NC(=O)OC2COC3OCCC23)cc1 (stereo not drawn) [Compound I-807] | <0.1% | 0.0366 L/h/kg | 0.86 nM
COc1ccc(S(=O)(=O)N(CC(C)C)CC(O)C(Cc2ccc(OCc3ccccc3-c3sc(Cl)c(C4CCCCC4)c3C(=O)O)cc2)NC(=O)OC2COC3OCCC23)cc1 (stereo not drawn) [Compound I-825] | <0.1% | 0.313 L/h/kg | 1.02 nM
COc1ccc(S(=O)(=O)N(CC(C)C)CC(O)C(Cc2ccc(OCc3ccccc3-c3sc4c(c3C(=O)O)CC(C)(C)CC4)cc2)NC(=O)OC2COC3OCCC23)cc1 (stereo not drawn) [Compound I-826] | <0.1% | 0.0494 L/h/kg | 1.18 nM
COc1ccc(S(=O)(=O)N(CC(C)C)CC(O)C(Cc2ccc(OCc3ncccc3-c3sc4c(c3C(=O)O)CC(C)(C)CC4)cc2)NC(=O)OC2COC3OCCC23)cc1 (stereo not drawn) [Compound I-827] | <0.1% | 0.253 L/h/kg | 0.81 nM
COc1ccc(S(=O)(=O)N(CC(C)C)CC(O)C(Cc2ccc(OCc3ccccc3-c3sc4c(c3C(=O)O)CCC4)cc2)NC(=O)OC2COC3OCCC23)cc1 (stereo not drawn) [Compound I-832] | <0.1% | 0.245 L/h/kg | 1.16 nM
Cc1cc(Oc2ccc(CC(NC(=O)OC3COC4OCCC34)C(O)CN(CC(C)C)S(=O)(=O)c3ccc4c(c3)OCO4)cc2)ccc1-c1sc2c(c1C(=O)O)CC(C)(C)CC2 (stereo not drawn) [Compound I-835] | <0.1% | 0.0978 L/h/kg | 2.81 nM
COc1ccc(S(=O)(=O)N(CC(C)C)CC(O)C(Cc2ccc(Oc3ccc(-c4sc5c(c4C(=O)O)CC(C)(C)CC5)c(F)c3)cc2)NC(=O)OC2COC3OCCC23)cc1 (stereo not drawn) [Compound I-836] | <0.1% | 0.259 L/h/kg | 1.76 nM
COc1ccc(S(=O)(=O)N(CC(C)C)CC(O)C(Cc2ccc(OCc3ccccc3-c3ccc4c(c3)C(=O)C(c3ccc(F)cc3)C4=O)cc2)NC(=O)OC2COC3OCCC23)cc1 (stereo not drawn) [Compound I-841] | <0.1% | 0.143 L/h/kg | 2.21 nM
COc1ccc(S(=O)(=O)N(CC(C)C)CC(O)C(Cc2ccc(OCc3ccccc3-c3ccc(Oc4ccc(-c5c(O)c6ccc(Cl)cc6[nH]c5=O)cc4)cc3)cc2)NC(=O)OC2COC3OCCC23)cc1 (stereo not drawn) [Compound I-847] | <0.1% | 0.36 L/h/kg | 3.38 nM
COc1ccc(S(=O)(=O)N(CC(C)C)CC(O)C(Cc2ccc(NCc3ccc4ccccc4c3-c3sc4c(c3C(=O)O)CC(C)(C)CC4)cc2)NC(=O)OC2COC3OCCC23)cc1 (stereo not drawn) [Compound I-851] | <0.1% | 0.0179 L/h/kg | 2.57 nM
COC(=O)NC(C(=O)NC(Cc1ccc(-c2sc3c(c2C(=O)O)CC(C)(C)CC3)cc1)C(O)CC(Cc1ccccc1F)C(=O)NC1c2cc(F)cc(Cl)c2OCC1O)C(C)(C)C (stereo not drawn) [Compound I-903] | <0.1% | 0.00262 L/h/kg | 2.23 nM
COc1ccc(S(=O)(=O)N(CC(C)C)C[C@@H](O)[C@H](Cc2ccc(OCc3ccccc3-c3sc4c(c3C(=O)O)CC(C)(C)CC4)cc2)NC(=O)OC2CO[C@H]3OC[C@H](OC)[C@@H]23)cc1 (stereo partly drawn) [Compound I-907] | <0.1% | 0.0438 L/h/kg | 1.27 nM
COc1ccc(S(=O)(=O)N(CC(C)C)C[C@@H](O)[C@H](Cc2ccc(OCc3ccccc3-c3sc4c(c3C(=O)O)CC(C)(C)CC4)cc2)NC(=O)O[C@H]2CCO[C@H]3OCC[C@H]32)cc1 [Compound I-908] | <0.1% | 0.0378 L/h/kg | 1.21 nM
